Source: patent publication US7910551B2, “Gene differentially expressed in breast and bladder cancer and encoded polypeptides” (University of Rochester, priority 2000, dated 2011)

Test system: B/C.N cells
Assay: CML assay: peptide sensitization of B/C.N cells to lysis by tumor-specific CTL
Assay type: cell-based, mouse
Conditions: for ability to sensitize B/C.N cells to lysis by tumor-specific CTL: 51Cr release, 4 hours

Row | Substance | ability to sensitize B/C.N cells to lysis by tumor-specific CTL | peptide concentration that did not sensitize targets to lysis by CTL (B/C.N targets) [mM] | peptide concentration sufficient to sensitize targets to lysis by CTL (B/C.N targets) [nM]
1 | L345-54 (I54): ribosomal protein L3 peptide, amino acids 45-54 with Ile 54 (AFLGYKAGMI) | did not |  | 
2 | L348-56 (T54): wild type ribosomal protein L3 peptide 48-56 with Thr 54 (GYKAGMTHI) [reference compound] | did not | > 100 | 
3 | L348-56 (I54): ribosomal protein L3 peptide, amino acids 48-56 with Ile 54; target epitope of tumor-specific CTL (GYKAGMIHI) | sensitized B/C.N to lysis |  | 10
